Source: US20180193294A1, “Dehydroabietic acid (DHAA) derivatives for use as ion channel openers” (priority 2015, published 2018)
“Also recorded” adds a separate entry of the source.

Legend:
HL-1 cells = assay: Membrane potential and firing of spontaneously beating HL-1 cells, whole-cell current clamp; format: cell-based; settings: 10 uM
Procedure: All conventional chemicals were purchased from Sigma-Aldrich (Stockholm, Sweden). The DHAA derivatives were diluted in ethanol in a 100 mM stock solution. The stock solutions were stored at −20 t for further use.
The cell culture was done according to a previous study (Claycomb et al., Proceedings of the National Academy of Sciences of the United States of America 1998; 95:2979-2984). In brief, cells were grown on gelating fibronectin coated T75 flasks. They were maintained in Claycomb Medium which was supplemented with 10% fetal bovine serum, 2 mM L-glutamine, 0.1 mM noradrenaline, and 100 U/ml, 100 μg/ml penicillin-streptomycin. Enzymatic dissociation with 0.05% trypsin-EDTA was done after full confluence. Isolated cells were plated on fibronectin-gelatin coated plastic coverslips and used for recording.
Whole-cell current-clamp recordings were done on confluent cells at 35±1° C., using an Axopatch 200B amplifier (Molecular Devices, Sunnyvale, Calif.). Patch pipettes were fabricated from borosilicate capillary glass on a vertical pipette puller and had resistances of 3-5 MO. Data were stored on a computer through Digidata 1440A interface (Molecular Devices), and was analyzed with pCLAMP software (version 10.1, Molecular Devices). The bath solution contained the following (in mM): 140 NaCl, 5.4 KCl, 1 MgCl2, 1.8 CaCl2, 10 HEPES, and 10 glucose (pH adjusted to 7.4 with NaOH). The micropipettes were filled with a solution containing (in mM): 130 K-gluconate, 9 KCl, 8 NaCl, 1 MgCl2, 10 EGTA, 10 HEPES, and 3 Na2ATP (pH adjusted to 7.3 with KOH).

3R Shaker K channel = 3R Shaker K channel (Drosophila melanogaster, UniProt P08510, A359R/M356R); assay: physchem; format: cell-based; settings: for compound-induced G(V) shift (mean±SEM) / G(V) shift: pH 7.4, Xenopus oocytes; for G(V) shift: Table 1; for Effects on K channel Mean ± SEM: Table 2, K channel expressed in Xenopus oocytes
Summary of the method: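 Two-electrode voltage clamp at 20-23° C. in oocytes (also CHO-K1 stable line, manual patch clamp) expressing Shaker H4 lacking N-type inactivation; 1K extracellular solution, pH 7.4, holding −80 mV, 100-ms 5-mV steps up to +70 mV. Compound-induced G(V) shift taken at 10% of control Gmax (oocytes) or as V1/2 difference (CHO-K1).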

[1] = tested on: dorsal root ganglion (DRG) neurons; assay: Resting membrane potential of DRG neurons, whole-cell current clamp; format: cell-based, mice; settings: 10 μM, pH 7.4, 120 s application
Procedure: All animal experiments were approved by the local Animal Care and Use Committee and followed international guidelines. Five female 7-12 week-old C57BL/6 mice (Scanbur) were used for this study. The mice were anaesthetized with isoflurane and decapitated. Dorsal root ganglia (DRG) were dissected from all spinal levels and enzymatically digested with collagenase (250 CDU/ml) for 15 min, and then trypsin (1 mg/ml) was added for another 30 min. The ganglia were centrifuged and resuspended in Leibovitz L-15 media with glutamine, supplemented with 10% fetal calf serum, 38 mM glucose, 24 mM NaHCO3 and penicillin/streptomycin. The ganglia were triturated and the DRG neurons plated on poly-D-lysine coated plastic coverslips. The neurons were cultured at 37° C. with 5% CO2 for 2-3 days before the electrophysiological recordings.
All manual electrophysiological recordings were performed at room temperature (20-23° C.), using a GeneClamp 500B amplifier (for oocytes) or a Axopatch 200B amplifier (for manual patch clamp of CHO—K1 cells and DRG neurons) and a Digidata 1440A digitizer and pClamp 10 software (all from Molecular Devices, Inc., Sunnyvale, Calif., USA). Compounds were dissolved to 100 mM in 99.5% EtOH and stored at −20° C. Compounds were diluted in extracellular solution to the desired test concentration.
CHO—K1 Cells were plated on coverslips 2 h before the manual electrophysiological recordings. Coverslips with CHO—K1 cells or DRG neurons were placed in a recording chamber and perfused with extracellular solution by a gravity-fed perfusion system. Substances were applied by a pressurized, automated OctaFlow perfusion system (ALA Scientific Instruments). The signals were sampled at 5-20 kHz after low-pass filtering at 2-5 kHz. For CHO—K1 cells the intracellular solution contained (in mM): 120 K-gluconate, 10 KCl, 5 EGTA, 10 HEPES, 4 Mg-ATP, 0.3 Na-GTP, pH 7.3; the extracellular solution contained (in mM): 135 NaCl, 4 KCl, 10 HEPES, 1 MgCl2, 1.8 CaCl2, 10 glucose, pH 7.4. Currents were evoked in CHO—K1 cells in whole-cell voltage-clamp mode from a holding potential of −80 mV by 100-ms long, 10-mV steps ranging from −80 to +80 mV.
For DRG neurons the intracellular solution contained (in mM): 120 K-gluconate, 10 KCl, 1 EGTA, 10 HEPES, 4 Mg-ATP, 0.3 Na-GTP, pH 7.3; the extracellular solution contained (in mM): 144 NaCl, 2.5 KCl, 10 HEPES, 0.5 MgCl2, 2 CaCl2, 10 glucose, pH 7.4. A liquid-junction potential of approximately −14 mV was corrected for. […] Small and medium sized DRG neurons were selected for whole-cell current-clamp recording. 10 μM of the compounds were applied for 120 s to study the effect on the resting membrane potential, and for 45-120 s to study the effects on evoked action potentials. To evoke action potentials 800-ms depolarizing pulses
The compound effect on the resting membrane potential Vm was determined by subtracting the control pre-compound Vm from the Vm at the end of the 120 s application of test compound.

3R Shaker K channel, sequence (P08510 whole entry M356R/A359R): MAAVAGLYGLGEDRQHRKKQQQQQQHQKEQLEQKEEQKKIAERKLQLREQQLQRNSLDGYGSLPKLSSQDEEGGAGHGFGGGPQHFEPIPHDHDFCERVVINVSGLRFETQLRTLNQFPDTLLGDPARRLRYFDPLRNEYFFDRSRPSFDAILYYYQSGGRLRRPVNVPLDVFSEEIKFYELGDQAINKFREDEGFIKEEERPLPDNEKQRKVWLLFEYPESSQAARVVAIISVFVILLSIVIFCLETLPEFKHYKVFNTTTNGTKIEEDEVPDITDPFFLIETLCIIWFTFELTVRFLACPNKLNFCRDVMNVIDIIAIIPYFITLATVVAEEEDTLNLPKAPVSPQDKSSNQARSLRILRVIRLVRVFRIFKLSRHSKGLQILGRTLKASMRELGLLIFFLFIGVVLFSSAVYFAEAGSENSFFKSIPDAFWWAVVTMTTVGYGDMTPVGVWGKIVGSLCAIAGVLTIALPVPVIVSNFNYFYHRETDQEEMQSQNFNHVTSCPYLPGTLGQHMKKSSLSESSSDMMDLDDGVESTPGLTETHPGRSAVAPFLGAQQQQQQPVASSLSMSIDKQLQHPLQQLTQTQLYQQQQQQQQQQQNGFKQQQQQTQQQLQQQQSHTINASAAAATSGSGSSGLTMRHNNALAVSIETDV

In the case of `C=CCO/N=C1\CC2[C@](C)(C(=O)O)CCC[C@]2(C)c2ccc(C(C)C)cc21` (stereo partly drawn) [Compound K8], the “Effects on HL-1 cells Mean (membrane potential)” value (“Effects on HL-1 cells Mean” below) (HL-1 cells) is reported as −3.6 mV, the “compound-induced G(V) shift (mean±SEM)” value (3R Shaker K channel; 100 μM) is reported as −17.8±1.9 mV and the “effect on G(V) shift / current compared with DHAA” value (3R Shaker K channel; C7-modified DHAA, 100 μM, pH 7.4) is reported as “significantly increased the effect”. For the same molecule, the “G(V) shift” value (3R Shaker K channel; 100 μM) was −17.8 mV, the “Effects on K channel Mean ± SEM” value (3R Shaker K channel) was −17.8 ± 1.9 mV and the relative current amplitude (3R Shaker K channel; representative traces at voltage giving 10% of maximum conductance in control, 100 μM, pH 7.4) was 7.6 times.

With `CC(C)c1cc2c(cc1Cl)[C@@]1(C)CCC[C@@](C)(C(=O)O)C1CC2` (stereo partly drawn) [Wu13, (1R,4aS)-6-chloro-7-isopropyl-1,4a-dimethyl-1,2,3,4,4a,9,10,10a-octahydrophenanthrene-1-carboxylic acid] the “G(V) shift” value (3R Shaker K channel; 100 μM) was −15.8 mV and the “shift of the resting membrane potential (ΔVm)” value (“shift … (ΔVm)” below) [1] was “most potent compounds on the DRG neurons”.

For `C=CCO/N=C1\CC2[C@](C)(C(=O)O)CCC[C@]2(C)c2cc(Cl)c(C(C)C)cc21` (stereo partly drawn) [Wu23, (1R,4aS,E)-9-((allyloxy)imino)-6-chloro-7-isopropyl-1,4a-dimethyl-1,2,3,4,4a,9,10,10a-octahydrophenanthrene-1-carboxylic acid], the “G(V) shift” value (3R Shaker K channel; 100 μM) was −26.7 mV and the “shift … (ΔVm)” value [1] was “intermediately potent hyperpolarizers”.

For `CC(C)c1ccc2c(c1Br)CCC1[C@](C)(C(=O)O)CCC[C@]21C` (stereo partly drawn) [Wu26, (1R,4aS)-8-bromo-7-isopropyl-1,4a-dimethyl-1,2,3,4,4a,9,10,10a-octahydrophenanthrene-1-carboxylic acid], the “Effects on HL-1 cells Mean” value (HL-1 cells) was −4.7 mV, the “G(V) shift” value (3R Shaker K channel; 100 μM) was −21.8 mV and the “Effects on K channel Mean ± SEM” value (3R Shaker K channel) was −21.8 ± 0.8 mV.

In the case of `CO/N=C1\CC2[C@](C)(C(=O)O)CCC[C@]2(C)c2cc(Cl)c(C(C)C)cc21` (stereo partly drawn) [Wu69, (1R,4aS,E)-6-chloro-7-isopropyl-9-methoxyimino-1,4a-dimethyl-1,2,3,4,4a,9,10,10a-octahydrophenanthrene-1-carboxylic acid], the “Effects on HL-1 cells Mean” value (HL-1 cells) is reported as −9.3 mV, the “effect on firing frequency of HL-1 cells” value (HL-1 cells) is reported as “reduced the frequency; also recorded: frequency is reduced” and the “effect on membrane potential of HL-1 cells” value (HL-1 cells) is reported as “hyperpolarized the membrane potential; also recorded: interspike membrane potential is made more negative; also recorded: most potent substance on the HL-1 cells”. For the same molecule, the “compound-induced G(V) shift (mean±SEM)” value (3R Shaker K channel; 100 μM) was “one of the most potent substances on the Shaker K 3R channel”, the “G(V) shift” value (3R Shaker K channel; 100 μM) was −28.1 mV and the “Effects on K channel Mean ± SEM” value (3R Shaker K channel) was −28.1 ± 1.7 mV.

For `CO/N=C1\CC2[C@](C)(C(=O)O)CCC[C@]2(C)c2ccc(C(C)C)c(Br)c21` (stereo partly drawn) [Wu74, (1R,4aS,E)-8-bromo-7-isopropyl-9-(methoxyimino)-1,4a-dimethyl-1,2,3,4,4a,9,10,10a-octahydrophenanthrene-1-carboxylic acid], the “G(V) shift” value (3R Shaker K channel; 100 μM) was −14.7 mV and the “shift … (ΔVm)” value [1] was “intermediately potent hyperpolarizers”.
